Tests used:
Type in all cases: cell-based
[1] = tested on: H358 cells; test: Cell viability assay (CELLTITER-GLO), H358 cells; details: Table 4; 3 days
Method in brief: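 Luminescent ATP read-out (CellTiter-Glo) after 3-day incubation at 37 °C of H358 cells plated at 4,000/well in RPMI 1640 with 10% FBS. Values are either IC50 bins (A ≤1 μM through D >10 μM) or % of DMSO viability at 10 μM or 1 μM, bins A <10% through D ≥50%.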

[2] = tested on: MOLM-13 cells; test: Cell viability assay (CELLTITER-GLO), MOLM-13 cells; details: Homo sapiens, MOLM-13, 72 h; Table 2; compound at 10 μM, 3 days; read-out: Effect on MOLM-13 cell viability (% DMSO)
Method in brief: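 Viability, as % of DMSO control, was read by CellTiter-Glo luminescence after a 3-day compound exposure (single dose of 10 μM or 1 μM) at 37 °C. Cells plated at 4,000/well in RPMI 1640 with 10% FBS. Results reported as categories A <10%, B 10–<25%, C 25–<50%, D ≥50%.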

[3] = tested on: H23 cells; test: Cell viability assay (CELLTITER-GLO), H23 cells; details: Table 4; 3 days
Method in brief: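 Luminescent CellTiter-Glo readout after 3-day compound treatment (37° C, 5% CO2) of H23 cells plated at 4,000 cells/well in RPMI 1640 plus 10% FBS, DMSO as control. IC50 values given as categorical ranges.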

In the case of `C=C(Cl)C(=O)N1CCN(c2nc(=O)n(-c3c(C)ccnc3C(C)C)c3nc(-c4c(F)cccc4OCCCCCCCN4CCC(c5cc(F)cc6c5CN(C5CCC(=O)NC5=O)C6=O)CC4)c(F)cc23)[C@@H](C)C1` (stereo partly drawn) [Compound 122, 3-(4-(1-(7-(2-(4-((S)-4-(2-Chloroacryloyl)-2-methylpiperazin-1-yl)-6-fluoro-1-(2-isopropyl-4-methylpyridin-3-yl)-2-oxo-1,2-dihydropyrido[2,3-d]pyrimidin-7-yl)-3-fluorophenoxy)heptyl)piperidin-4-yl)-6-fluoro-1-oxoisoindolin-2-yl)piperidine-2,6-dione], the “Inhibition of H358 cells, IC50 (class)” value [1] is reported as “A′”, the viability at 10 µM [2] is reported as < 10% and the “Inhibition of H23 cells, IC50 (class)” value [3] is reported as “A′”.

In the case of `C=C(Cl)C(=O)N1CCN(c2ncnc3c(F)c(-c4c(F)cccc4OCCCCCCCN4CCC(c5cc6c(cc5F)C(=O)N(C5CCC(=O)NC5=O)C6)CC4)c(Cl)cc23)C[C@H]1CC#N` (stereo partly drawn) [Compound 123, 2-((2R)-4-(6-Chloro-7-(2-((7-(4-(2-(2,6-dioxopiperidin-3-yl)-6-fluoro-1-oxoisoindolin-5-yl)piperidin-1-yl)heptyl)oxy)-6-fluorophenyl)-8-fluoroquinazolin-4-yl)-1-(2-chloroacryloyl)-piperazin-2-yl)acetonitrile], the “Inhibition of H358 cells, IC50 (class)” value [1] is reported as “A′”, the viability at 10 µM [2] is reported as < 10% and the “Inhibition of H23 cells, IC50 (class)” value [3] is reported as “A′”.

`C=CC(=O)N1CCN(c2nc(=O)n(-c3c(C)ccnc3C(C)C)c3nc(-c4c(F)cccc4OCCCCCCCN4CCC(c5cc(F)cc6c5CN(C5CCC(=O)NC5=O)C6=O)CC4)c(F)cc23)[C@@H](C)C1` (stereo partly drawn) [Compound 124, 3-(4-(1-(7-(2-(4-((S)-4-Acryloyl-2-methylpiperazin-1-yl)-6-fluoro-1-(2-isopropyl-4-methylpyridin-3-yl)-2-oxo-1,2-dihydropyrido[2,3-d]pyrimidin-7-yl)-3-fluorophenoxy)heptyl)-piperidin-4-yl)-6-fluoro-1-oxoisoindolin-2-yl)piperidine-2,6-dione] was tested, and the “Inhibition of H358 cells, IC50 (class)” value [1] was “A′”, the viability at 10 µM [2] was < 10% and the “Inhibition of H23 cells, IC50 (class)” value [3] was “B′”.

In the case of `C=C(Cl)C(=O)N1C[C@@H]2C(=O)N(CCCCCCCN3CCC(c4cc(F)cc5c4CN(C4CCC(=O)NC4=O)C5=O)CC3)c3cnc4c(F)c(-c5c(O)cccc5F)c(Cl)cc4c3N2C[C@H]1C` (stereo partly drawn) [Compound 125, 3-(4-(1-(7-((2R,4aR)-11-Chloro-3-(2-chloroacryloyl)-9-fluoro-10-(2-fluoro-6-hydroxyphenyl)-2-methyl-5-oxo-1,2,3,4,4a,5-hexahydro-6H-pyrazino[1′,2′:4,5]pyrazino[2,3-c]quinolin-6-yl)heptyl)piperidin-4-yl)-6-fluoro-1-oxoisoindolin-2-yl)piperidine-2,6-dione], the “Inhibition of H358 cells, IC50 (class)” value [1] is reported as “B′”, the viability at 10 µM [2] is reported as < 10% and the “Inhibition of H23 cells, IC50 (class)” value [3] is reported as “B′”.

In the case of `C=C(Cl)C(=O)N1CCN(c2nc(=O)n(-c3ccc(CCCCCCCN4CCC(c5cc(F)cc6c5CN(C5CCC(=O)NC5=O)C6=O)CC4)cc3C(C)C)c3nc(-c4c(O)cccc4F)c(F)cc23)[C@@H](C)C1` (stereo partly drawn) [Compound 126, 3-(4-(1-(7-(4-(4-((S)-4-(2-Chloroacryloyl)-2-methylpiperazin-1-yl)-6-fluoro-7-(2-fluoro-6-hydroxyphenyl)-2-oxopyrido[2,3-d]pyrimidin-1(2H)-yl)-3-isopropylphenyl)heptyl)piperidin-4-yl)-6-fluoro-1-oxoisoindolin-2-yl)piperidine-2,6-dione], the “Inhibition of H358 cells, IC50 (class)” value [1] is reported as “B′”, the viability at 10 µM [2] is reported as < 10% and the “Inhibition of H23 cells, IC50 (class)” value [3] is reported as “B′”.

For `C=C(Cl)C(=O)N1CCN(c2ncnc3c(F)c(-c4c(F)cccc4OC[C@H]4CC[C@@H](CN5CCC(c6cc(F)cc7c6CN(C6CCC(=O)NC6=O)C7=O)CC5)CC4)c(Cl)cc23)CC1` (stereo partly drawn) [Compound 127, 3-(4-(1-(((1s,4s)-4-((2-(6-Chloro-4-(4-(2-chloroacryloyl)piperazin-1-yl)-8-fluoro-quinazolin-7-yl)-3-fluorophenoxy)methyl)cyclohexyl)methyl)piperidin-4-yl)-6-fluoro-1-oxoisoindolin-2-yl)piperidine-2,6-dione], the “Inhibition of H358 cells, IC50 (class)” value [1] was “A′”, the viability at 10 µM [2] was < 10% and the “Inhibition of H23 cells, IC50 (class)” value [3] was “A′”.

From patent publication US12630547B2, “RAS protein degraders, pharmaceutical compositions thereof, and their therapeutic applications” (BioTheryX, Inc., priority 2019, dated 2026)
